The results in this text go back to patent US7271181B2, “Inhibitors of p38” (Vertex Pharmaceuticals Incorporated, priority 2001, dated 2007).

The test addresses T1, activated p38 (Homo sapiens, UniProt Q16539).
T1 construct: amplify the coding region of CSBP2 cDNA using a HeLa cell library; made in house; host or cells: Trichoplusia ni (Tn-368) High-Five insect cells, baculovirus (virus generated in Sf9)
Nature of the test: p38 inhibition assay: inhibition of ATPase activity. The class given is biochemical. Particulars: ATPase activity of activated p38 (60 nM), various ATP concentrations. As for the experimental part:
B. Inhibition of ATPase Activity
This assay is carried out in the presence of 10 mM MgCl2, 25 mM β-glycerophosphate, 10% glycerol and 100 mM HEPES buffer at pH 7.6. For a typical Ki determination, the Km for ATP in the ATPase activity of activated p38 reaction is determined in the absence of inhibitor and in the presence of two concentrations of inhibitor. A stock solution is prepared containing all of the above components and activated p38 (60 nM). The stock solution is aliquotted into vials. A fixed volume of DMSO or inhibitor in DMSO (final concentration of DMSO in reaction was 2.5%) is introduced to each vial, mixed and incubated for 15 minutes at room temperature. The reaction is initiated by adding various concentrations of ATP and then incubated at 30° C. After 30 minutes, the reactions are quenched with 50 μl of EDTA (0.1 M, final concentration), pH 8.0. The product of p38 ATPase activity, ADP, is quantified by HPLC analysis.
Separation of ADP from ATP is achieved on a reversed phase column (Supelcosil, LC-18, 3 μm, part no. 5-8985) using a binary solvent gradient of following composition: Solvent A—0.1 M phosphate buffer containing 8 mM tetrabutylammonium hydrogen sulfate (Sigma Chemical Co., catalogue no. T-7158), Solvent B—Solvent A with 30% methanol.
Ki is determined from the rate data as a function of inhibitor and ATP concentrations.

T1 sequence (Q16539 whole entry): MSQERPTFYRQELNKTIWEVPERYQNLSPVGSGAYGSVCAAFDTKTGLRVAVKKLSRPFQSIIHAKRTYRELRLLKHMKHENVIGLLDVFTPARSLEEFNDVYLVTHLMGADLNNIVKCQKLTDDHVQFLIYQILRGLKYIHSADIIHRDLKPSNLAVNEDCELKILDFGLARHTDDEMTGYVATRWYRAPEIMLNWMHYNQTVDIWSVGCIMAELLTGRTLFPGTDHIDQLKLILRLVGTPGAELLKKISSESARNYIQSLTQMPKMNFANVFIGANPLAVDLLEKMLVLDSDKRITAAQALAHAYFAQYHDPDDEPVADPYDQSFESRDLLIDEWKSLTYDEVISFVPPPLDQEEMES

On to `O=C(c1ccc(N(C(=O)CCc2ccccc2)c2c(F)cccc2F)nc1)c1sccc1-n1cccc1` [Compound 633], for which the Ki was 1 to 10 µM.
As for `O=C(c1ccc(N(C(=O)OCc2ccccc2)c2c(F)cccc2F)nc1)c1ccccc1Cl` [Compound 631], the figure is 1 to 10 µM; as for `O=C(c1ccccc1)c1ccc(N(C(=O)Cc2ccc(F)cc2)c2c(F)cccc2F)nc1` [Compound 626], 1 to 10 µM.
As for `O=C(c1ccccc1)c1ccc(N(C(=O)Oc2ccc(F)cc2)c2c(F)cccc2F)nc1` [Compound 628], the figure is 1 to 10 µM; as for `O=C(c1ccccc1)c1ccc(N(C(=O)OCc2ccccc2)c2c(F)cccc2F)nc1` [Compound 627], 1 to 10 µM.
To `O=C(c1ccc(N(C(=O)Oc2ccc(F)cc2)c2c(F)cccc2F)nc1)c1ccccc1Cl` [Compound 632] belongs 1 to 10 µM; to `O=C(c1ccc(N(C(=O)CCc2ccccc2)c2c(F)cccc2F)nc1)c1ccccc1Cl` [Compound 629], 1 to 10 µM.
In turn, `O=C(c1ccccc1)c1ccc(N(C(=O)CCc2ccccc2)c2c(F)cccc2F)nc1` [Compound 625] gave a Ki of 1 to 10 µM.
Molecule `O=C(c1ccc(N(C(=O)Cc2ccc(F)cc2)c2c(F)cccc2F)nc1)c1ccccc1Cl` [Compound 630] had a Ki of 1 to 10 µM.
As for `O=C(c1ccc(N(C(=O)Cc2ccc(F)cc2)c2c(F)cccc2F)nc1)c1sccc1-n1cccc1` [Compound 634], the figure is 1 to 10 µM; as for `O=C(c1ccc(N(C(=O)OCc2ccccc2)c2c(F)cccc2F)nc1)c1sccc1-n1cccc1` [Compound 635], 1 to 10 µM.
